In patent US20110059909A1, “METHODS FOR TREATING INFLAMMATORY DISORDERS” (priority 2004, published 2011):

What was measured:
IκB = test: Phosphorylated IκB immunoblot of cytoplasmic extract; assay type: cell-based, rat; conditions: LPS/IFNγ
Description: For iNOS protein, the cells were washed with cold Tris buffered saline (TBS; 20 mM Trizma base, and 137 mM NaCl, pH 7.5), lysed in 1×SDS sample loading buffer (62.5 mM Trizma base, 2% w/v SDS, 10% glycerol), following sonication and centrifugation at 15,000×g for 5 min, the supernatant was used for the iNOS western immunoblot assay. The protein concentration of samples was determined with the detergent compatible protein assay reagent (Bio-Rad Laboratories, CA) using bovine serum albumin (BSA) as the standard. Sample was boiled for 3 min with 0.1 volumes of 10% β-mercaptoethanol and 0.5% bromophenol blue mix. Fifty μg of total cellular protein was resolved by electrophoresis on 8 or 12% polyacrylamide gels, electro-transferred to polyvinylidene difluoride (PVDF) filter and blocked with Tween 20 containing Tris-buffered saline (TBST; 10 mM Trizma base-pH 7.4, 1% Tween 20, and 150 mM NaCl) with 5% skim milk. […] The membranes were detected by autoradiography using ECL-plus (Amersham Pharmacia Biotech) after washing with TBST buffer.

GFAP = GFAP mRNA (real time PCR) and protein (immunoblot) in TNFα-stimulated primary astrocytes; assay type: cell-based, rat; conditions: for TNFα-induced GFAP mRNA and protein expression: TNFα 1 ng/ml, mRNA 8 h, protein 18 h
Description: (§1) For iNOS protein, the cells were washed with cold Tris buffered saline (TBS; 20 mM Trizma base, and 137 mM NaCl, pH 7.5), lysed in 1×SDS sample loading buffer (62.5 mM Trizma base, 2% w/v SDS, 10% glycerol), following sonication and centrifugation at 15,000×g for 5 min, the supernatant was used for the iNOS western immunoblot assay. The protein concentration of samples was determined with the detergent compatible protein assay reagent (Bio-Rad Laboratories, CA) using bovine serum albumin (BSA) as the standard. Sample was boiled for 3 min with 0.1 volumes of 10% β-mercaptoethanol and 0.5% bromophenol blue mix. Fifty μg of total cellular protein was resolved by electrophoresis on 8 or 12% polyacrylamide gels, electro-transferred to polyvinylidene difluoride (PVDF) filter and blocked with Tween 20 containing Tris-buffered saline (TBST; 10 mM Trizma base-pH 7.4, 1% Tween 20, and 150 mM NaCl) with 5% skim milk. After incubation with antiserum against iNOS (BD PharMingen, CA), rat GalT-2 (Abjent Inc., CA), H-Ras (Upstate Biotechnology, CA), GFAP (Santa Cruz Biotech, CA), or phospho-specific ERK1/2 (Cell signaling Tech Inc., MA), or pIκ-B (Signal Transduction), in PVDF buffer for 2 h at room temperature, the filters were washed 3 times with TBST buffer and then incubated with horseradish peroxidase conjugated anti-rabbit or mouse IgG for 1 h. The membranes were detected by autoradiography using ECL-plus (Amersham Pharmacia Biotech) after washing with TBST buffer.

rat primary astrocytes [1] = test: BrdU incorporation assay, proliferation of primary astrocytes; assay type: cell-based; conditions: for TNFα-induced astrocyte proliferation: pretreated 0.5 h (AS: 48 h after transfection), TNFα 1 ng/ml 18 h
Description: (§2) Primary astrocyte-enriched cultures were prepared from the whole cortex of one day old Sprague-Dawley rats as described earlier (Pahan et al., 1998b). Briefly, the cortex was rapidly dissected in ice-cold calcium/magnesium free Hanks Balanced Salt Solution (HBSS) (Gibco, Grand Island, N.Y.) at pH 7.4 as described previously (Won et al., 2001). The tissue was then minced, incubated in HBSS containing trypsin (2 mg/ml) for 20 min and washed twice in plating medium containing 10% FBS and 10 μg/ml gentamicin, and then disrupted by triturating through a Pasteur pipette following which cells were seeded in 75-cm^2 culture flasks (Falcon, Franklin, N.J.). After incubation at 37° C. in 5% CO2 for 1 day, the medium was completely changed to the culture medium (DMEM containing 5% FBS and 10 μg/ml gentamicin). The cultures received half exchanges with fresh medium twice a week. After 14-15 days the cells were shaken for at least 24 h on an orbital shaker to remove the microglia and then seeded on multi-well tissue culture dishes. The cells were incubated with serum-free DMEM for 24 h prior to the incubation with drugs.
Proliferation of primary astrocytes was assayed by using the Cell proliferation ELISA, BrdU colorimetric assay kit (Roche, Germany) according to manufacturer's protocol. Briefly, cells were seeded in 96 well plates in quadruplicate and following overnight serum starvation were stimulated with mitogenic stimulants. 2 h before termination of proliferation assay, BrdU (10 μM) was added to each well following which cells were fixed and levels of incorporated BrdU were assayed by using a conjugated anti-BrdU enzyme. Colorimetric analysis was done by measuring absorbance at 370 nm using a spectramax MAX 190 (Molecular devices) multi-well plate reading spectrophotometer.

iNOS = iNOS mRNA (RT-PCR) and protein (immunoblot) in LPS/IFNγ-stimulated primary astrocytes; assay type: cell-based, rat; conditions: for LPS/IFNγ-induced iNOS mRNA and protein levels: primary astrocytes, LPS/IFNγ (1 μg/ml; 10 U/ml), mRNA 6 h, protein 24 h
Description: as §2, §1
5 μg total RNA was treated with 2 U DNAse I (bovine pancreas, Sigma) for 15 min at room temperature in 18 μl volume containing 1×PCR buffer and 2 mM MgCl2. It was then inactivated by incubation with 2 μl of 25 mM EDTA at 65° C. for 15 min. 2 μl of random primers were added and annealed to the RNA according to the manufacturer's protocol. cDNA was synthesized in a 50 μl reaction containing 5 μg of total RNA and 50-100 U reverse transcriptase by incubating the tubes at 42° C. for 60 min. PCR amplification was conducted in 25 μl of reaction mixture with 1.0 μl of cDNA, […] of each primer and under the manufacturer's Taq polymerase conditions (Takara, Takara Shuzo Co. Ltd, Japan). The sequence of primers used for PCR amplification are as follows; iNOS, (Forward-5′ […] 3′, SEQ ID NO:3; Reverse-5′ […] 3′, SEQ ID NO:4), GalT-2 (Forward-5′ tggtacaagctagaggc 3′, SEQ ID NO:5; Reverse-5′ gcatggcacattgaa C-3′, SEQ ID NO:6), GAPDH (Forward-5′ […] 3′, SEQ ID NO:7; Reverse-5′ cttcacgaagttgtcattgagggca3′, SEQ ID NO:8), TNFα (Forward-5′ […] g-3′, SEQ ID NO:9; Reverse-5′[…]-3′, SEQ ID NO:10) and IL-1β (Forward-5′[…]-3′, SEQ ID NO:11; reverse-5′[…]-3′, SEQ ID NO:12).

rat primary astrocytes [2] = test: Assay for NO production (nitrite, Griess reagent) in LPS/IFNγ-stimulated primary astrocytes; assay type: cell-based; conditions: for LPS/IFNγ-induced NO production: primary astrocytes, LPS/IFNγ (1 μg/ml; 10 U/ml), NO at 24 h
Description: as §2
Cells were cultured in 12-well plastic tissue culture plates. Following appropriate treatment, production of NO was determined by an assay of the culture supernatant for nitrite (Green et al., 1982). Briefly, 100 μl of culture supernatant was allowed to react with 100 μl of Griess reagent. The optical density of the assay samples was measured spectrophotometrically at 570 nm. Nitrite concentrations were calculated from a standard curve derived from the reaction of NaNO2 in fresh media.

ERK1/2 = ERK1/2 activation (phospho-ERK1/2 immunoblot) in primary astrocytes; assay type: cell-based, rat
Description: as §1

## CCCCCCCCCC(=O)NC(CN1CCOCC1)C(O)c1ccccc1.Cl [PDMP, D-threo-1-Phenyl-2-decanoylamino-3-morpholino-1-propanol.HCl]
IκB; in the presence of PDMP
  Phosphorylation of IκB: Decreased
GFAP
  TNFα-induced GFAP mRNA and protein expression: inhibited
Rat primary astrocytes [1]; BrdU incorporation
  TNFα-induced astrocyte proliferation: dose dependently inhibited
iNOS
  LPS/IFNγ-induced iNOS mRNA and protein levels: dose dependent decrease
Rat primary astrocytes [2]
  LPS/IFNγ-induced NO production: dose dependent decrease
ERK1/2; pretreated 0.5 h, LPS/IFNγ 20 min
  LPS/IFNγ-induced phosphorylation of ERK1/2: inhibited
ERK1/2; pretreated 0.5 h, TNFα 20 min
  TNFα-induced ERK1/2 phosphorylation: inhibited

## AS GalT-2 oligonucleotides: 20-mer antisense oligonucleotide 5′-CGCTTGAGCGCAGACATCTT-3′, SEQ ID NO:1, against rat lactosylceramide synthase (GalT-2) (antisense CGCTTGAGCGCAGACATCTT; chemistry not given here)
GFAP
  TNFα-induced GFAP mRNA and protein expression: diminished
Rat primary astrocytes [1]; BrdU incorporation
  TNFα-induced astrocyte proliferation: decreased
iNOS
  LPS/IFNγ-induced iNOS mRNA and protein levels: decreased
Rat primary astrocytes [2]
  LPS/IFNγ-induced NO production: decreased

## Lactosylceramide [LacCer]
IκB; PDMP plus LacCer
  Levels of phosphorylated IκB when LacCer was added to PDMP: increased
GFAP; PDMP 25 μM plus LacCer 5 μM
  Reversal of PDMP-mediated inhibition of TNFα-induced GFAP expression: reversed
GFAP; exogenous LacCer
  Reversal of AS-mediated inhibition of GFAP expression: blunted
  Reversal of LY-mediated inhibition of TNFα-mediated GFAP expression: effectively bypassed
GFAP; exogenous LacCer, TNFα
  Effect on PD98059-mediated inhibition of GFAP expression: no effect
GFAP; exogenous lipid
  Reversal of DMS-mediated inhibition of TNFα-induced GFAP expression: reversed
Rat primary astrocytes [1]; LY 30 μM plus exogenous lipid
  Reversal of LY-mediated inhibition of TNFα-induced proliferation: effectively blunted
Rat primary astrocytes [1]; PDMP 25 μM plus exogenous lipid
  Reversal of PDMP-mediated inhibition of TNFα-induced proliferation: able to bypass
Rat primary astrocytes [1]; exogenous LacCer
  Reversal of GalT-2 AS-mediated inhibition of TNFα-induced proliferation: bypassed the inhibition
Rat primary astrocytes [1]; exogenous lipid
  Reversal of DMS-mediated inhibition of TNFα-induced proliferation: reversed
  Reversal of PD98059-mediated inhibition of TNFα-induced proliferation: could not be reversed
Rat primary astrocytes [1]; increasing doses (1, 5 and 10 μM for GSL), 18 h, BrdU incorporation
  Proliferation of astrocytes induced by the substance itself: induced proliferation
iNOS; NAC 10 mM or PDTC 100 μM, exogenous LacCer
  Reversal of NAC- and PDTC-mediated inhibition of LPS/IFNγ-stimulated iNOS gene expression: not reversed
iNOS; PDMP 50 μM plus LacCer 5 and 10 μM, 0.5 h before LPS/IFNγ
  Reversal of PDMP-mediated inhibition of iNOS gene expression: blunted
iNOS; exogenous LacCer, LPS/IFNγ
  Effect on PD98059-mediated inhibition of iNOS gene expression: no effect
Rat primary astrocytes [2]; PDMP 50 μM plus exogenous glycosphingolipid 5 and 10 μM, 0.5 h before LPS/IFNγ
  Reversal of PDMP-mediated inhibition of LPS/IFNγ-induced NO production: blunted
Rat primary astrocytes [2]; exogenous LacCer, LPS/IFNγ
  Reversal of GalT-2 AS-mediated inhibition of NO production and iNOS levels: reversed the inhibition
ERK1/2; LY 30 μM plus LacCer 10 μM
  Reversal of LY-mediated inhibition of TNFα-mediated ERK1/2 activation: bypassed
ERK1/2; exogenous LacCer
  Reversal of PD98059-mediated inhibition of TNFα-induced ERK1/2 activity: not
  Reversal of PDMP-mediated inhibition of LPS/IFNγ-induced ERK1/2 phosphorylation: reversed
  Reversal of PDMP-mediated inhibition of TNFα-induced ERK1/2 activity: reverse
